Data reported in ChEMBL document CHEMBL5131534, “Identification of 2-Pyridinylindole-Based Dual Antagonists of Toll-like Receptors 7 and 8 (TLR7/8)” (ACS Med Chem Lett, 2022).

Key:
[1] = Oral bioavailability in mouse blood at 15 mg/kg; assay type: ADME, organism-based
Toll-like receptor 4 = Toll-like receptor 4 (Homo sapiens, UniProt O00206); assay: Antagonist activity at […] stimulated human TRL4 overexpressed in HEK293 cells assessed as inhibition of NF kappa B/Ap-1 activation preincubated with compound for 30 mins followed by […] stimulation measured after 22 hrs by SEAP reporter assay; assay type: cell-based
Chain of Toll-like receptor 4 (O00206 whole entry): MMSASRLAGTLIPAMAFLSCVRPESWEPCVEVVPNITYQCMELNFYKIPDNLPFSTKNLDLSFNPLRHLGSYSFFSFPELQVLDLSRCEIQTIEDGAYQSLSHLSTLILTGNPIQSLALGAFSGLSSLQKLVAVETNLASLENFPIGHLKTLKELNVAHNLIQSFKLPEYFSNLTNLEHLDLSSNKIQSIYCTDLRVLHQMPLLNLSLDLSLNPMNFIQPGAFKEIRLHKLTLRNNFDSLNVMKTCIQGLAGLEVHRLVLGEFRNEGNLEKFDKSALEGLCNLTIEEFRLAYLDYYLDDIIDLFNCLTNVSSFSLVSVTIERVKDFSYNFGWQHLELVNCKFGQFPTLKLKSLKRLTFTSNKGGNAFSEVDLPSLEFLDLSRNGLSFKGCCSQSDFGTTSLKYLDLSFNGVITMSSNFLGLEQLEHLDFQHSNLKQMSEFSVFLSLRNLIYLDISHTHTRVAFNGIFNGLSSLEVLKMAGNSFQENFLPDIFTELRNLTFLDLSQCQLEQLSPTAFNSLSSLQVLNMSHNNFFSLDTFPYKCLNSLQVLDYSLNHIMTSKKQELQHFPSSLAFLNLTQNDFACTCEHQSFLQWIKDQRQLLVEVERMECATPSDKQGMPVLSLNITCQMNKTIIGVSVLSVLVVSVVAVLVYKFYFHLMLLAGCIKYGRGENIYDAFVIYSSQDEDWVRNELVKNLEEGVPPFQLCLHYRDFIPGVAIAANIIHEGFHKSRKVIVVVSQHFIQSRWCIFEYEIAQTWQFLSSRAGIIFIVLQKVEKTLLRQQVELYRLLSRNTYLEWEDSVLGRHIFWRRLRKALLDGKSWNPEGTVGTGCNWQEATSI

Mus musculus [2] = assay: Anti-inflammatory activity against MRL/Ipr Systemic lupus erythematosus mouse model assessed as inhibition of anti-dsDNA Ab titer at 20 mg/kg, po administered for 8 weeks and measured 24 hrs post final dose relative to control; assay type: functional; parameters: scale not given: the % may be the effect or the level left; settings: time 1368 hrs
[3] = Plasma protein binding in rat assessed as free fraction; assay type: ADME, cell-free
Mus musculus [4] = assay: Anti-inflammatory activity against MRL/Ipr Systemic lupus erythematosus mouse model assessed as inhibition of proteinuria at 5 mg/kg, po administered for 8 weeks and measured 24 hrs post final dose relative to control; assay type: functional; parameters: scale not given: the % may be the effect or the level left; settings: time 1368 hrs
[5] = Plasma protein binding in mouse assessed as free fraction; assay type: ADME, cell-free
[6] = Clearance in mouse blood at 5 mg/kg, iv; assay type: ADME, organism-based
[7] = AUClast in mouse blood at 5 mg/kg, iv; assay type: ADME, organism-based; parameters: time 0 - last, dose 5 mg/kg, route iv
[8] = In vivo antagonist activity at TRL7 in C57BL/6 mouse assessed as inhibition of gardiquimod stimulated IL-6 production at 0.5 mg/kg,po for 30 minutes and followed by gardiquimod addition measured after 90 mins by ELISA analysis relative to control; assay type: functional; parameters: scale not given: the % may be the effect or the level left; settings: time 120 min, 2 h
Mus musculus [9] = assay: Anti-inflammatory activity against MRL/Ipr Systemic lupus erythematosus mouse model assessed as inhibition of anti-Sm/RNP Ab titer at 5 mg/kg, po administered for 8 weeks and measured 24 hrs post final dose relative to control; assay type: functional; parameters: scale not given: the % may be the effect or the level left; settings: time 1368 hrs
[10] = In vivo antagonist activity at TRL7 in C57BL/6 mouse assessed as inhibition of gardiquimod stimulated IL-6 production at 0.05 mg/kg,po for 30 minutes and followed by gardiquimod addition measured after 90 mins by ELISA analysis relative to control; assay type: functional; parameters: scale not given: the % may be the effect or the level left; settings: time 120 min, 2 h
[11] = Toxicity in MRL/Ipr Systemic lupus erythematosus mouse model assessed as change in body weight at 0.1 to 20 mg/kg, po administered for 8 weeks and measured 24 hrs post final dose; assay type: organism-based; settings: in vivo, 1368 h, dose 0.1-20 mg/kg
[12] = Toxicity in MRL/Ipr Systemic lupus erythematosus mouse model assessed as relative spleen weight at 0.1 mg/kg, po administered for 8 weeks and measured 24 hrs post final relative to control; assay type: organism-based; settings: in vivo, 1368 h
[13] = In vivo antagonist activity at TRL9 in C57BL/6 mouse assessed as inhibition of ODN1585 stimulated IL-6 production at 30 mg/kg,po for 30 minutes and followed by ODN1585 addition measured after 90 mins by ELISA analysis relative to control; assay type: functional; parameters: scale not given: the % may be the effect or the level left; settings: time 120 min, 2 h
[14] = In vivo antagonist activity at TRL7 in C57BL/6 mouse assessed as inhibition of gardiquimod stimulated IL-6 production at 0.03 mg/kg,po for 30 minutes and followed by gardiquimod addition measured after 90 mins by ELISA analysis relative to control; assay type: functional; parameters: scale not given: the % may be the effect or the level left; settings: time 120 min, 2 h
[15] = Toxicity in MRL/Ipr Systemic lupus erythematosus mouse model assessed as relative spleen weight at 20 mg/kg, po administered for 8 weeks and measured 24 hrs post final dose relative to control; assay type: organism-based; settings: in vivo, 1368 h
[16] = AUClast in mouse blood at 15 mg/kg, po; assay type: ADME, organism-based; parameters: time 0 - last, dose 15 mg/kg, route po
Mus musculus [17] = assay: Anti-inflammatory activity against MRL/Ipr Systemic lupus erythematosus mouse model assessed as inhibition of proteinuria at 0.1 mg/kg, po administered for 8 weeks and measured 24 hrs post final dose relative to control; assay type: functional; parameters: scale not given: the % may be the effect or the level left; settings: time 1368 hrs
Mus musculus [18] = assay: Anti-inflammatory activity against MRL/Ipr Systemic lupus erythematosus mouse model assessed as inhibition of urinary NGAL at 20 mg/kg, po administered for 8 weeks and measured 24 hrs post final dose relative to control; assay type: functional; parameters: scale not given: the % may be the effect or the level left; settings: time 1368 hrs
[19] = Cmax in mouse blood at 15 mg/kg, po; assay type: ADME, organism-based; parameters: dose 15 mg/kg, route po
Mus musculus [20] = assay: Anti-inflammatory activity against MRL/Ipr Systemic lupus erythematosus mouse model assessed as inhibition of anti-Sm/RNP Ab titer at 1 mg/kg, po administered for 8 weeks and measured 24 hrs post final dose relative to control; assay type: functional; parameters: scale not given: the % may be the effect or the level left; settings: time 1368 hrs
Mus musculus [21] = assay: Anti-inflammatory activity against MRL/Ipr Systemic lupus erythematosus mouse model assessed as inhibition of urinary NGAL at 0.1 mg/kg, po administered for 8 weeks and measured 24 hrs post final dose relative to control; assay type: functional; parameters: scale not given: the % may be the effect or the level left; settings: time 1368 hrs
[22] = (§1) In vivo antagonist activity at TRL7 in C57BL/6 mouse assessed as inhibition of gardiquimod stimulated IL-6 production at […],po for 30 minutes and followed by gardiquimod addition measured after 90 mins by ELISA analysis relative to control; assay type: functional; parameters: scale not given: the % may be the effect or the level left; settings: time 120 min, 2 h
[23] = Tmax in mouse blood at 15 mg/kg, po; assay type: ADME, organism-based
[24] = as §1; assay type: functional; parameters: scale not given: the % may be the effect or the level left; settings: time 120 min, 2 h; remark: listed apart in the source
Toll-like receptor 8 = target: T1, Toll-like receptor 8 (Homo sapiens, UniProt Q9NR97)
T1 sequence (Q9NR97 whole entry): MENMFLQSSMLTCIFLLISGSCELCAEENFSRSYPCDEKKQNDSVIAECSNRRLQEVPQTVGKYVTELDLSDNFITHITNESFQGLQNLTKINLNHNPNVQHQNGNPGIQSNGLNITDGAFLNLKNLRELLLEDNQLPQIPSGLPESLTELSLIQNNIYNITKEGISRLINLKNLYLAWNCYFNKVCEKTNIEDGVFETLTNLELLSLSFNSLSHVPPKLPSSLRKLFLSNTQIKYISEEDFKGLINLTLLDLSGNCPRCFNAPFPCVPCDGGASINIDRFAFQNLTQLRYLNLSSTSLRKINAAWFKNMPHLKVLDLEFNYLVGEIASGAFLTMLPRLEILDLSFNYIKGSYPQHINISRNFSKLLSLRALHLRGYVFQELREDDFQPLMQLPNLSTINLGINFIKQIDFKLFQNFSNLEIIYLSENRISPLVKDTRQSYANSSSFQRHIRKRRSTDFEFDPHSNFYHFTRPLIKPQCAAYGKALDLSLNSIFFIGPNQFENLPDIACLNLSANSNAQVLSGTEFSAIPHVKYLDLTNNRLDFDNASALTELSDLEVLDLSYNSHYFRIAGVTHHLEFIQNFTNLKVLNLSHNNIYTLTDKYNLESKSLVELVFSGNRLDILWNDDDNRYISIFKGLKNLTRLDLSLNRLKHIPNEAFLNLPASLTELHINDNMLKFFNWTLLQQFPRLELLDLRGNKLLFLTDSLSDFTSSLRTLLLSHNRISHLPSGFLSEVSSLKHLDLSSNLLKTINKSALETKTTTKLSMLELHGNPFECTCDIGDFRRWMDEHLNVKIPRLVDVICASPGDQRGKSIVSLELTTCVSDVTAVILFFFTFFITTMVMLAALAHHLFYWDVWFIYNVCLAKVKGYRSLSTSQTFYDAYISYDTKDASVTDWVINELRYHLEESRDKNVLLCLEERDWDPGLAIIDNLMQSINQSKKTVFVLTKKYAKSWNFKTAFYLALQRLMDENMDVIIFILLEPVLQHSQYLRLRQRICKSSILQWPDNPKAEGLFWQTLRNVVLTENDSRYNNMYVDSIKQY

Structure (SMILES): Cc1cc(-c2[nH]c3ccc(C4CCNCC4)cc3c2C(C)C)cc(C)n1
- bioavailability [1]: 58%
- IC50 (Toll-like receptor 4): > 10000 nM
- Activity (Mus musculus [2]): 53%
- fraction unbound [3]: 0.11
- Activity (Mus musculus [4]): 92%
- fraction unbound [5]: 0.05
- clearance [6]: 146 mL/min/kg
- AUC(0-t) [7]: 1.58 µM·h
- Activity [8]: 98%
- Activity (Mus musculus [9]): 74%
- Activity [10]: 66%
- Activity [11]: Non-Toxic
- Activity [12]: 28%
- Activity [13]: 38%
- Activity [14]: 28%
- Activity [15]: 51%
- AUC(0-t) [16]: 2.77 µM·h
- Activity (Mus musculus [17]): 69%
- Activity (Mus musculus [18]): 81%
- Cmax [19]: 255 nM
- Activity (Mus musculus [20]): 84%
- Activity (Mus musculus [21]): 52%
- Activity [22]: 83%
- Tmax [23]: 5 h
- Activity [24]: 16%
- IC50 (Toll-like receptor 8): 4.2 nM
